Measured values from patent publication US20220040179A1, “USE OF CDK8/19 INHIBITORS FOR TREATMENT OF ESTABLISHED COLON CANCER HEPATIC METASTASIS” (University of South Carolina, priority 2017, published 2022).

Legend:
CT26 cells [1] = assay: splenic injection model, CT26 cells: spleen (primary tumor) and liver (metastatic tumor) weights; type: in vivo, mouse; conditions: 40 mg/kg daily i.p., 16 days, BALB/c mice
Procedure: To compare the effects of CDK8/19 inhibition on primary and metastatic tumor growth, we used a splenic injection model (Lafreniere and Rosenberg, 1986; Zhang et al., 2009), where tumor cells are injected in the spleen, from where they metastasize into the liver. In the study shown in FIG. 4, 2×10^5 CT26 cells were injected into the spleens of 8 weeks old female BALB/c mice, and mice were treated by daily i.p. injection of Senexin B dichloride (40 mg/kg) in 10 mM citrate buffer, pH6, 150 mM NaCl or with vehicle control (n=9). 1 6 days later, mice were sacrificed and the weights of tumor-containing spleens (primary tumor) and livers (metastatic tumor) were measured.
Mice were sacrificed 16 days after tumor cell inoculation into the spleen and spleens and livers were weighed.

CT26 colon cancer cells = assay: in vitro growth of CT26 cells; type: cell-based, murine; conditions: 1 uM, 5-day assay
Description: To investigate the role of CDK8/19 in colon cancer growth and metastasis, we used murine CT26 colon cancer cell line, derived from a BALB/c mouse following chemical carcinogenesis (Griswold and Corbett, 1975). Cells were propagated in RPMI1640 medium with 10% Fetal Bovine Serum.

CT26 cells [2] = assay: survival of mice after splenic injection of CT26 cells followed by removal of the spleen; type: in vivo, mouse
Procedure: (§1) We have analyzed the survival of mice after splenic injection of 2×10^5 CT26 cells into 8 week old female BALB/c mice, followed by removal of the spleen 1 minute after injection. Mice were sacrificed when paralysis, lack of movement or paleness (due to abdominal hemorrhage) occurred. […] To establish serum drug concentrations associated with therapeutic efficacy in this model, we conducted a similar survival study where Senexin B dimaleate was administered by mixing the drug into mouse food, which provides for sustained drug delivery over time. Senexin B was mixed into food at two concentrations differing approximately 4-fold and designated low-dose and high-dose. Serum samples were collected from treated mice and Senexin B in the serum was measured by a LC/MS/MS assay.

CT26 tumors = assay: primary CT26 tumors implanted subcutaneously in BALB/c mice; type: in vivo, mouse; conditions: unmodified CT26 cells, female BALB/c mice; 50 mg/kg by gavage b.i.d. in CD vehicle vs vehicle
Procedure: We further investigated the effects of CDK8/19 inhibition or knockdown on the growth of primary CT26 tumors implanted subcutaneously (s.c.), at I xl 0^6 cells, in 8 weeks-old female BALB/c mice (n=I0). FIG. 3A compares the dynamics of tumor growth and final tumor weights for CT26 cells transduced with insert-free pLK0.1 (vector control) or shCDK8-1. […] FIG. 3B compares s.c. tumor growth of unmodified CT26 cells in mice treated with Senexin B dimaleate, administered by gavage at 50 mg/kg doses (weight doses calculated for Senexin B dimaleate rather than free Senexin B) in 6.25% 2-Hydroxypropyl-cyclodextrin, I % Dextrose buffer (CD vehicle), b.i.d. or with the vehicle control.

[3] = Senexin B serum concentration by LC/MS/MS in mice on medicated diet; type: in vivo, mouse
Procedure: as §1

[4] = toxicity and body weight in mice receiving Senexin B diet; type: in vivo; conditions: Senexin B diet relative to control diet
Procedure: as §1

[5] = test system: human HCTl 16 colon cancer cells; assay: splenic injection model, human HCT116 cells in athymic nude mice: liver weights; type: in vivo; conditions: 50 mg/kg by gavage b.i.d. in CD vehicle, 7 weeks after inoculation
Procedure: The splenic injection model was used to test the effect of Senexin B on hepatic metastasis of human HCTl 16 colon cancer cells, which are […] to small-molecule CDK8/19 inhibitors (Koehler et al., 2016; Pelish et al., 2015; Porter et al., 2012). 1×10^6 HCTl 16 cells were injected into the spleens of athymic nude (nu/nu) mice (JAX #002019) mice (female, 8 weeks old), and spleens were removed 1 min later. Mice were treated with Senexin B dimaleate (50 mg/kg by gavage in CD vehicle, b.i.d.) or vehicle control (n=10). 7 weeks after tumor cell inoculation, mice were sacrificed and livers with tumor metastases (FIG. 8A) were collected.

CT26 cells [6] = assay: splenic injection model, CT26 cells: timing of drug administration, liver weights two weeks after inoculation; type: in vivo, mouse; conditions: 50 mg/kg gavage b.i.d.
Procedure: To determine if the anti-metastatic effects of CDK8/19 inhibition observed in the splenic injection model were due to the prevention of the initial establishment of hepatic metastases or growth inhibition of already-established metastases, we asked whether Senexin B can inhibit metastatic growth in the liver when the drug is administered after the metastases have been established. […] We compared the effects of Senexin B dimaleate on hepatic metastasis, when the drug was administered by gavage at 50 mg/kg doses in CD vehicle, b.i.d. two days prior to splenic inoculation, during the first week after inoculation, during the second week after inoculation, or over the entire two-week period following splenic inoculation of CT26 cells.

CN1CCN(C(=O)c2ccc3cc(CCNc4ncnc5ccc(C#N)cc45)ccc3c2)CC1.Cl.Cl [Senexin B dichloride]
metastatic tumor growth in the liver (liver weight, tumor area) (CT26 cells [1]): strongly inhibited metastatic tumor growth in the liver | primary tumor growth in the spleen (spleen weight) (CT26 cells [1]): no effect on the primary tumor growth in the spleen

CN1CCN(C(=O)c2ccc3cc(CCNc4ncnc5ccc(C#N)cc45)ccc3c2)CC1 [Senexin B]
in vitro growth inhibition of CT26 cells (CT26 colon cancer cells): no significant growth inhibition

CN1CCN(C(=O)c2ccc3cc(CCNc4ncnc5ccc(C#N)cc45)ccc3c2)CC1.O=C(O)/C=C\C(=O)O.O=C(O)/C=C\C(=O)O [Senexin B dimaleate]
survival (Kaplan-Meyer) (CT26 cells [2]; combination: mice inoculated with shCDK8-1 cells and treated with Senexin B, 50 mg/kg gavage b.i.d.): increased the survival time even further | survival (Kaplan-Meyer), efficiency of diet (CT26 cells [2]; low-dose diet (drug mixed into food) compared with high-dose diet): at least as efficient as the high-dose diet | survival (Kaplan-Meyer) (CT26 cells [2]; mice inoculated with vector control cells, 50 mg/kg gavage b.i.d. in CD vehicle): prolonged the survival | s.c. tumor growth (CT26 tumors): not statistically significant | average serum concentration ([3]; high-dose diet): 206 nM | average serum concentration ([3]; low-dose diet): 58 nM | toxicity [4]: no apparent toxicity | mouse body weight ([4]; days 8 and 15 after surgery): no significant change in mouse body weight | hepatic tumor growth (liver weights) [5]: strong inhibition of hepatic tumor growth | liver metastasis (liver weight) (CT26 cells [6]; administered two days prior to splenic inoculation): no effect on liver metastasis | metastatic growth in the liver (liver weight) (CT26 cells [6]; both weeks after inoculation): equally efficient in suppressing metastatic growth in the liver | liver metastasis (liver weight) (CT26 cells [6]; during the first week after inoculation): decreased the liver weights but this effect did not reach statistical significance | metastatic growth in the liver (liver weight) (CT26 cells [6]; only the second week after inoculation): equally efficient in suppressing metastatic growth in the liver
